For assay [1], the system named is Rab10 pThr73. The assay is described as follows: Rab10 Thr73 dephosphorylation (immunoblot) in LRRK2^G2019S MEFs. Format: cell-based, mouse. The conditions noted are these: Mus musculus, read-out: pRab10 inhibited in LRRK2^G2019S MEFs. (Immunoblotting shows a protein as a band on a membrane.)
The test system of assay [2] is Rab10 pThr73. The assay is described as follows: Rab10 Thr73 dephosphorylation (immunoblot) in WT MEFs. Format: cell-based, mouse. The conditions noted are these: Mus musculus, read-out: pRab10 inhibited in WT MEFs. Summed up:
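Wild-type mouse embryonic fibroblasts in 6-well plates were treated with LRRK2 PROTACs, with two biological replicates per condition. Cells were washed in PBS and lysed on ice in buffer containing phosphatase and protease inhibitors plus 1% Triton X-100, then clarified at 15,000 g. Rab10 Thr73 phosphorylation was measured by quantitative immunoblotting of 15 to 20 μg protein on 4-12% Bis-Tris gels.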

Assay [3] relates to Rab10 pThr73. The assay is described as follows: Rab10 Thr73 dephosphorylation (immunoblot) in LRRK2^G2019S MEFs. Format: cell-based. Particulars: Mus musculus, read-out: pRab10 inhibited in LRRK2^G2019S MEFs.

These results are taken from patent US20260001875A1, “AMINOPYRIMIDINYL DERIVATIVES FOR THE TREATMENT OF PARKINSON'S DISEASE” (UNIVERSITY OF DUNDEE, priority 2022, published 2026).

For `CNc1nc(Nc2ccc(C(=O)N3CCN(CCOCCOCCSC(C)(C)[C@H](NC(=O)C4(F)CC4)C(=O)N4C[C@H](O)C[C@H]4C(=O)N[C@@H](C)c4ccc(-c5scnc5C)cc4)CC3)cc2OC)ncc1Cl` [XL01119, (2S,4R)-1-((R)-3-((2-(2-(2-(4-(4-((5-chloro-4-(methylamino)pyrimidin-2-yl)amino)-3-methoxybenzoyl)piperazin-1-yl)ethoxy)ethoxy)ethyl)thio)-2-(1-fluorocyclopropane-1-carboxamido)-3-methylbutanoyl)-4-hydroxy-N—((S)-1-(4-(4-methylthiazol-5-yl)phenyl)ethyl)pyrrolidine-2-carboxamide], the inhibition at 1 µM in the assay with Rab10 pThr73 [1] (1 μM/4 h treatment) was in the range of 20 to 100%; with Rab10 pThr73 [1] (1 μM/24 h treatment), 10 to 100%; with Rab10 pThr73 [2] (1 μM/4 h treatment) it was 10 to 95%; with Rab10 pThr73 [2] (1 μM/24 h treatment) it was 30 to 100%. For the same compound, the inhibition at 0.033 µM is 0 to 40% in the assay with Rab10 pThr73 [2] (33 nM/4 h treatment), 0 to 60% in the assay on Rab10 pThr73 [2] (33 nM/24 h treatment), 0 to 70% in the assay with Rab10 pThr73 [3] (33 nM/4 h treatment) and 0 to 90% with Rab10 pThr73 [3] (33 nM/24 h treatment).

Take `CNc1nc(Nc2ccc(C(=O)N3CCN(Cc4ccc(CSC(C)(C)[C@H](NC(=O)C5(F)CC5)C(=O)N5C[C@H](O)C[C@H]5C(=O)N[C@@H](C)c5ccc(-c6scnc6C)cc5)cc4)CC3)cc2OC)ncc1Cl` [XL01120, (2S,4R)-1-((R)-3-((4-((4-(4-((5-chloro-4-(methylamino)pyrimidin-2-yl)amino)-3-methoxybenzoyl)piperazin-1-yl)methyl)benzyl)thio)-2-(1-fluorocyclopropane-1-carboxamido)-3-methylbutanoyl)-4-hydroxy-N—((S)-1-(4-(4-methylthiazol-5-yl)phenyl)ethyl)pyrrolidine-2-carboxamide]: the inhibition at 1 µM is 20 to 100% with Rab10 pThr73 [1] (1 μM/4 h treatment), 10 to 100% in the assay on Rab10 pThr73 [1] (1 μM/24 h treatment), 10 to 95% with Rab10 pThr73 [2] (1 μM/4 h treatment) and 30 to 100% in the assay on Rab10 pThr73 [2] (1 μM/24 h treatment). For the same compound, the inhibition at 0.033 µM lay within 0 to 40% in the assay on Rab10 pThr73 [2] (33 nM/4 h treatment), 0 to 60% in the assay on Rab10 pThr73 [2] (33 nM/24 h treatment), 0 to 70% in the assay on Rab10 pThr73 [3] (33 nM/4 h treatment) and 0 to 90% in the assay with Rab10 pThr73 [3] (33 nM/24 h treatment).

For the compound `CNc1nc(Nc2ccc(C(=O)N3CCN(Cc4ccc(CSC(C)(C)[C@H](NC(=O)C5(F)CC5)C(=O)N5C[C@H](O)C[C@H]5C(=O)NCc5ccc(-c6scnc6C)c(F)c5)cc4)CC3)cc2OC)ncc1Cl` [XL01121, (2S,4R)-1-((R)-3-((4-((4-(4-((5-chloro-4-(methylamino)pyrimidin-2-yl)amino)-3-methoxybenzoyl)piperazin-1-yl)methyl)benzyl)thio)-2-(1-fluorocyclopropane-1-carboxamido)-3-methylbutanoyl)-N-(3-fluoro-4-(4-methylthiazol-5-yl)benzyl)-4-hydroxypyrrolidine-2-carboxamide], the inhibition at 1 µM in the assay on Rab10 pThr73 [1] (1 μM/4 h treatment) lay in the range of 20 to 100%; in the assay with Rab10 pThr73 [1] (1 μM/24 h treatment), 10 to 100%; in the assay on Rab10 pThr73 [2] (1 μM/4 h treatment), 10 to 95%; in the assay with Rab10 pThr73 [2] (1 μM/24 h treatment) it was 30 to 100%. Besides, the inhibition at 0.033 µM lay within 0 to 40% in the assay on Rab10 pThr73 [2] (33 nM/4 h treatment), 0 to 60% in the assay on Rab10 pThr73 [2] (33 nM/24 h treatment), 0 to 70% in the assay with Rab10 pThr73 [3] (33 nM/4 h treatment) and 0 to 90% in the assay with Rab10 pThr73 [3] (33 nM/24 h treatment).

With `CNc1nc(Nc2ccc(C(=O)N3CCN(CCCSC(C)(C)[C@H](NC(=O)C4(F)CC4)C(=O)N4C[C@H](O)C[C@H]4C(=O)NCc4ccc(-c5scnc5C)c(F)c4)CC3)cc2OC)ncc1Cl` [XL01122, (2S,4R)-1-((R)-3-((3-(4-(4-((5-chloro-4-(methylamino)pyrimidin-2-yl)amino)-3-methoxybenzoyl)piperazin-1-yl)propyl)thio)-2-(1-fluorocyclopropane-1-carboxamido)-3-methylbutanoyl)-N-(3-fluoro-4-(4-methylthiazol-5-yl)benzyl)-4-hydroxypyrrolidine-2-carboxamide], the inhibition at 1 µM with Rab10 pThr73 [1] (1 μM/4 h treatment) lay within 20 to 100%; in the assay with Rab10 pThr73 [1] (1 μM/24 h treatment), 10 to 100%; in the assay with Rab10 pThr73 [2] (1 μM/4 h treatment), 10 to 95%; with Rab10 pThr73 [2] (1 μM/24 h treatment), 30 to 100%. The inhibition at 0.033 µM with Rab10 pThr73 [2] (33 nM/4 h treatment) is 0 to 40%; with Rab10 pThr73 [2] (33 nM/24 h treatment), 0 to 60%; in the assay with Rab10 pThr73 [3] (33 nM/4 h treatment) it was 0 to 70%; in the assay with Rab10 pThr73 [3] (33 nM/24 h treatment) it was 0 to 90%.

Consider `CNc1nc(Nc2ccc(C(=O)N3CCN(CCOCCOCCSC(C)(C)[C@H](NC(=O)C4(F)CC4)C(=O)N4C[C@H](O)C[C@H]4C(=O)NCc4ccc(-c5scnc5C)c(F)c4)CC3)cc2OC)ncc1Cl` [XL01123, (2S,4R)-1-((R)-3-((2-(2-(2-(4-(4-f((5-chloro-4-(methylamino)pyrimidin-2-yl)amino)-3-methoxybenzoyl)piperazin-1-yl)ethoxyl)ethoxy)ethyl)thio)-2-(1-fluorocyclopropane-1-carboxamido)-3-methylbutanoyl)-N-(3-fluoro-4-(4-methylthiazol-5-yl)benzyl)-4-hydroxypyrrolidine-2-carboxamide], for which the inhibition at 1 µM in the assay with Rab10 pThr73 [1] (1 μM/4 h treatment) is 20 to 100%; in the assay on Rab10 pThr73 [1] (1 μM/24 h treatment) it was 10 to 100%; in the assay on Rab10 pThr73 [2] (1 μM/4 h treatment), 10 to 95%; with Rab10 pThr73 [2] (1 μM/24 h treatment) it was 30 to 100%. Further, the inhibition at 0.033 µM is 0 to 40% in the assay with Rab10 pThr73 [2] (33 nM/4 h treatment), 0 to 60% in the assay with Rab10 pThr73 [2] (33 nM/24 h treatment), 0 to 70% in the assay with Rab10 pThr73 [3] (33 nM/4 h treatment) and 0 to 90% with Rab10 pThr73 [3] (33 nM/24 h treatment).

Turning to `CNc1nc(Nc2ccc(C(=O)N3CCN(CCOCCSC(C)(C)[C@H](NC(=O)C4(F)CC4)C(=O)N4C[C@H](O)C[C@H]4C(=O)NCc4ccc(-c5scnc5C)cc4)CC3)cc2OC)ncc1Cl` [XL01131, (2S,4R)-1-((R)-3-((2-(2-(4-(4-((5-chloro-4-(methylamino)pyrimidin-2-yl)amino)-3-methoxybenzoyl)piperazin-1-yl)ethoxy)ethyl)thio)-2-(1-fluorocyclopropane-1-carboxamido)-3-methylbutanoyl)-4-hydroxy-N-(4-(4-methylthiazol-5-yl)benzyl)pyrrolidine-2-carboxamide], the inhibition at 1 µM with Rab10 pThr73 [1] (1 μM/4 h treatment) lay within 20 to 100%; in the assay with Rab10 pThr73 [1] (1 μM/24 h treatment) it was 10 to 100%; in the assay with Rab10 pThr73 [2] (1 μM/4 h treatment), 10 to 95%; in the assay with Rab10 pThr73 [2] (1 μM/24 h treatment), 30 to 100%. The inhibition at 0.033 µM is 0 to 40% in the assay on Rab10 pThr73 [2] (33 nM/4 h treatment), 0 to 60% in the assay on Rab10 pThr73 [2] (33 nM/24 h treatment), 0 to 70% in the assay with Rab10 pThr73 [3] (33 nM/4 h treatment) and 0 to 90% in the assay on Rab10 pThr73 [3] (33 nM/24 h treatment).

For `CNc1nc(Nc2ccc(C(=O)N3CCN(C[C@H](C)SC(C)(C)[C@H](NC(=O)C4(F)CC4)C(=O)N4C[C@H](O)C[C@H]4C(=O)NCc4ccc(-c5scnc5C)cc4)CC3)cc2OC)ncc1Cl` [XL01140, (2S,4R)-1-((R)-3-(((S)-1-(4-(4-((5-chloro-4-(methylamino)pyrimidin-2-yl)amino)-3-methoxybenzoyl)piperazin-1-yl)propan-2-yl)thio)-2-(1-fluorocyclopropane-1-carboxamido)-3-methylbutanoyl)-4-hydroxy-N-(4-(4-methylthiazol-5-yl)benzyl)pyrrolidine-2-carboxamide], the inhibition at 1 µM fell in the range of 20 to 100% with Rab10 pThr73 [1] (1 μM/4 h treatment), 10 to 100% in the assay with Rab10 pThr73 [1] (1 μM/24 h treatment), 10 to 95% in the assay on Rab10 pThr73 [2] (1 μM/4 h treatment) and 30 to 100% in the assay with Rab10 pThr73 [2] (1 μM/24 h treatment). Besides, the inhibition at 0.033 µM in the assay with Rab10 pThr73 [2] (33 nM/4 h treatment) lay within 0 to 40%; in the assay on Rab10 pThr73 [2] (33 nM/24 h treatment), 0 to 60%; with Rab10 pThr73 [3] (33 nM/4 h treatment), 0 to 70%; with Rab10 pThr73 [3] (33 nM/24 h treatment), 0 to 90%.
